The text below walks through data of patent publication US7407670B2, “Solid dispersions comprising two different polymer matrixes” (Janssen Pharmaceutica, N.V., priority 2002, dated 2008).

The data set can be described thus: Solubility of itraconazole in polymer solutions at 298K. The conditions noted are these: eudragit E100 solution versus PVPVA64 solution. The class given is physicochemical. An excerpt:
FIG. 10: Solubility of itraconazole in different concentration of polymer solutions at 298K in eudragit E100 (open bars) and PVPVA64 (closed bars).

As for `CCC(C)n1ncn(-c2ccc(N3CCN(c4ccc(OCC5COC(Cn6cncn6)(c6ccc(Cl)cc6Cl)O5)cc4)CC3)cc2)c1=O` (stereo not shown) [itraconazole, Itraconazole], the “solubility in polymer solution (comparison in words)” value is “much higher in eudragit E100 solution”.
